In publication PMC5773580, “A synthetic combinatorial approach to disabling deviant Hedgehog signaling” (Scientific Reports, 2018):
“And” between values parts separate entries of the source, which are not always exact repeats. Equal values may be shown once.

Key:
[1] = tested on: SMO-M2 in NIH3T3 (GLI-BS reporter); assay: GLI-BS reporter assay, NIH3T3 cells with SMO-M2 DNA; assay type: cell-based; conditions: Mus musculus
Method: (§1) The HH-responsive firefly luciferase reporter (GLI-BS) and a control Renilla luciferase reporter (SV40-RL) were transfected into indicated cell lines using Effectene (Qiagen) either alone or with indicated DNAs. 24 hrs after transfection, cells were switched to low serum media (3% calf serum), and grown for another 48 hrs. in 5% CO2 in the presence/absence of compounds. 3T3-ShhFL cell line that stably expressing SHH and the two reporters were cultured in a similar fashion. FL and RL activities in lysate generated using Passive Lysis Buffer (Promega) were then assessed using the Dual-Luciferase kit (Promega) and a 96-well plate reading luminometer (BMG). The ratio of FL/RL was calculated and the averaged ratios from three replicates were reported.

[2] = tested on: GLI-BS reporter in Ptch1-/- MEFs; assay: GLI-BS reporter assay in Ptch1-/- MEFs; assay type: cell-based
Method: as §1

HDAC4 = molecular target: T1, HDAC4 (Homo sapiens, UniProt P56524); assay: In vitro HDAC profiling (deacetylation assay), HDAC4; assay type: biochemical; conditions: for HDAC Activity (Fluorescent counts): Repeat1/Repeat 2
T1 construct: purchased BPS Bioscience #50051-11
T1 sequence (P56524 whole entry): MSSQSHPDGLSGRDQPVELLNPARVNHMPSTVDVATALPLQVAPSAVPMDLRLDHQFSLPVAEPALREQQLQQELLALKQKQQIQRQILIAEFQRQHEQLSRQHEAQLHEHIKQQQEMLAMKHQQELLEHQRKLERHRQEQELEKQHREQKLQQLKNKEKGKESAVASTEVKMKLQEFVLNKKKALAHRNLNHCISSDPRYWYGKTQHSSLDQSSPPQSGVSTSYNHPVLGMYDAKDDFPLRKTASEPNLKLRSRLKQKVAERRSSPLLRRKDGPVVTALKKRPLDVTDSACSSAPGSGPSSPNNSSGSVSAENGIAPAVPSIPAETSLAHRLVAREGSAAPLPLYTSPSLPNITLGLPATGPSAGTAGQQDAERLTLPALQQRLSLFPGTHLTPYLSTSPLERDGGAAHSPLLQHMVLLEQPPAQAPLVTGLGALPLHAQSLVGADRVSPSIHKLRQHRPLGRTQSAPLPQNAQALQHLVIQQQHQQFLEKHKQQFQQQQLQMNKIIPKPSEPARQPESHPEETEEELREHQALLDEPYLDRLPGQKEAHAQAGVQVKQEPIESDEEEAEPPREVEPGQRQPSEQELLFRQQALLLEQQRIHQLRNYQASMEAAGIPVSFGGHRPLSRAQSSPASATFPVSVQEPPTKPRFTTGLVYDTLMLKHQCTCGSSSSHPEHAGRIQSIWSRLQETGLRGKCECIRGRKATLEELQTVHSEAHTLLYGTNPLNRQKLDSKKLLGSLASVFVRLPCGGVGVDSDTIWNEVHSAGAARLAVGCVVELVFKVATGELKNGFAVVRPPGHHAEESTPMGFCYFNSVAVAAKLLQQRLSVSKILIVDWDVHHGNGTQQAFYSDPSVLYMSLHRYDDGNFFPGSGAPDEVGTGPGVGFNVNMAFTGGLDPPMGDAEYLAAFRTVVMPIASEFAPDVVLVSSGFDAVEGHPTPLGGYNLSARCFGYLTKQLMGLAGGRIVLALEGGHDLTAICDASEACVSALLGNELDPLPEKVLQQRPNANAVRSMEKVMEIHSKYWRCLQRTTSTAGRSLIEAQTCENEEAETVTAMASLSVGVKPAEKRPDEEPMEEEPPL
Method: (§2) HDAC profiling was performed at BPS Bioscience (San Diego, CA). All of the compounds are dissolved in DMSO. A series of dilutions of the compounds were prepared with 10% DMSO in HDAC assay buffer (#50031) and 5 µl of the dilution was added to a 50 µl reaction so that the final concentration of DMSO is 1% in all of reactions. All of the enzymatic reactions were conducted in duplicate at 37 °C for 30 mins, except that the enzyme reactions for HDAC11 were at room temperature for 3 hrs. All of the reactions were performed in a 50 µl mixture containing HDAC assay buffer, 5 µg BSA, an HDAC substrate [HDAC Substrate 3 (BPS number 50037) or HDAC Class 2a Substrate 1 (BPS number 50040)], an HDAC enzyme (#50051-11) and a test compound. After enzymatic reactions, 50 μl of HDAC Developer (#50030) was added to each well and the plate was incubated at room temperature for an additional 20 mins. Fluorescence intensity was measured at an excitation of 360 nm and an emission of 460 nm using a Tecan Infinite M1000 microplate reader. HDAC activity assays were performed in duplicates at each concentration. The fluorescent intensity data were analyzed using the computer software, Graphpad Prism. In the absence of the compound, the fluorescent intensity (Ft) in each data set was defined as 100% activity. In the absence of HDAC, the fluorescent intensity (Fb) in each data set was defined as 0% activity. The percent activity in the presence of each compound was calculated according to the following equation: %activity = (F − Fb)/(Ft − Fb), where F = the fluorescent intensity in the presence of the compound. The values of % activity versus a series of compound concentrations were then plotted using non-linear regression analysis of Sigmoidal dose-response curve generated with the equation Y = B + (T − B)/1 + 10((LogIC50 − X) × Hill Slope), where Y = percent activity, B = minimum percent activity, T = maximum percent activity, X = logarithm of compound and Hill Slope = slope factor or Hill coefficient. The IC50 value was determined by the concentration causing a half-maximal percent activity.

HDAC7 = molecular target: T2, HDAC7 (Homo sapiens, UniProt Q8WUI4); assay: In vitro HDAC profiling (deacetylation assay), HDAC7; assay type: biochemical; conditions: for HDAC Activity (Fluorescent counts): Repeat1/Repeat 2
T2 construct: purchased BPS Bioscience #50051-11
T2 sequence (Q8WUI4 1-952): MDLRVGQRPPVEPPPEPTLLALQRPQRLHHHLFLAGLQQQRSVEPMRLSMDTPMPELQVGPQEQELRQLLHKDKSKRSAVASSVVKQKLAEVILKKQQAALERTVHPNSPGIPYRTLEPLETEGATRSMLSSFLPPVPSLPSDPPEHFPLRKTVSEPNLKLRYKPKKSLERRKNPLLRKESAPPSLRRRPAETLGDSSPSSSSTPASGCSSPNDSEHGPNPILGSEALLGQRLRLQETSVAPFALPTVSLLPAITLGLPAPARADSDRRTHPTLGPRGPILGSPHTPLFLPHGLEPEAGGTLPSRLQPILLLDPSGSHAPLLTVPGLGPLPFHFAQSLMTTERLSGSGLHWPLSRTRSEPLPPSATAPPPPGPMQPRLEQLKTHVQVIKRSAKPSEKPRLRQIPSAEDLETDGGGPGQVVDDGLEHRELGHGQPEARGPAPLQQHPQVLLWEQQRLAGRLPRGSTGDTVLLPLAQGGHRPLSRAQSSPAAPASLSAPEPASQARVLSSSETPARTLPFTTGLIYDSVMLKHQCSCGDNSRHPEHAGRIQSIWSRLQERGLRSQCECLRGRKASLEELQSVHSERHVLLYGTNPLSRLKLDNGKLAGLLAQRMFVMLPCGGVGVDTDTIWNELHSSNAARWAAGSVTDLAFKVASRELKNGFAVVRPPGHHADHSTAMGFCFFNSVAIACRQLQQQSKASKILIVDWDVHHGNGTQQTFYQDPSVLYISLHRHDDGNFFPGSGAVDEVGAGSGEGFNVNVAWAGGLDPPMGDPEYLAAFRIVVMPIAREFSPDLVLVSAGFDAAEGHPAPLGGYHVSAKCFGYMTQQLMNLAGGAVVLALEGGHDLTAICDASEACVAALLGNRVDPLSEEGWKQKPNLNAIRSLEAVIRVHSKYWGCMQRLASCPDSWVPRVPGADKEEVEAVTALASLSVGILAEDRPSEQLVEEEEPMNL
Method: as §2

[3] = tested on: SMO-L412F in NIH3T3 (GLI-BS reporter); assay: GLI-BS reporter assay, NIH3T3 cells with SMO-L412F DNA; assay type: cell-based; conditions: Mus musculus
Method: as §1

HDAC3/NCOR2 = molecular target: T3, HDAC3/NCOR2 (Homo sapiens, UniProt O15379); assay: In vitro HDAC profiling (deacetylation assay), HDAC3; assay type: biochemical; conditions: for HDAC Activity (Fluorescent counts): Repeat1/Repeat 2
T3 construct: purchased BPS Bioscience #50051-11
T3 sequence (O15379 whole entry): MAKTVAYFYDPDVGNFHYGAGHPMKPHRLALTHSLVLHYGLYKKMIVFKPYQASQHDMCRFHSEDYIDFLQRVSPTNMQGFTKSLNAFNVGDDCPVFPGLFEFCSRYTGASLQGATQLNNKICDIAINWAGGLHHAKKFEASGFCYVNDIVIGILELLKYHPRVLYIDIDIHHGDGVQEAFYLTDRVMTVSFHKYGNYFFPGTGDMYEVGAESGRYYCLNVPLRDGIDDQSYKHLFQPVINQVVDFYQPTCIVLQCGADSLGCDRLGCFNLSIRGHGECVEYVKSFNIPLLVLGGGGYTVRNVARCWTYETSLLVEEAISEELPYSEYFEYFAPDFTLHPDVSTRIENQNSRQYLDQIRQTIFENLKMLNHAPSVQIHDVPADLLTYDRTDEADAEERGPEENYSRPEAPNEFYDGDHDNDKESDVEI
T3 sequence (Q9Y618 395-489 partner limits assumed): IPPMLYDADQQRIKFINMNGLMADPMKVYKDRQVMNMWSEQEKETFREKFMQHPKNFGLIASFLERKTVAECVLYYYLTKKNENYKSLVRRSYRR
Method: as §2

[4] = in vitro deacetylation assay, duplicates

In the case of O=C(CCCCCCC(=O)Nc1ccc(Cl)c(C(=O)Nc2ccc(NC(=O)c3cc(Cl)ccc3Cl)cc2)c1)NO [IHR-SAHA], the IC50 [1] is reported as 80 nM, the IC50 [2] is reported as 15 nM and the “HDAC Activity (Fluorescent counts)” value (HDAC4; HDAC4, WW01 0 Log nM) is reported as 34281 Fluorescent counts and 35156 Fluorescent counts. For the same compound, the “HDAC Activity (Fluorescent counts)” value (HDAC4; HDAC4, WW01 0.5 Log nM) was 35257 Fluorescent counts and 33365 Fluorescent counts, the “HDAC Activity (Fluorescent counts)” value (HDAC4; HDAC4, WW01 1 Log nM) was 34132 Fluorescent counts and 32561 Fluorescent counts and the “HDAC Activity (Fluorescent counts)” value (HDAC4; HDAC4, WW01 1.5 Log nM) was 32307 Fluorescent counts and 33171 Fluorescent counts. The “HDAC Activity (Fluorescent counts)” value (HDAC4; HDAC4, WW01 2 Log nM) was 34170 Fluorescent counts and 33741 Fluorescent counts, the “HDAC Activity (Fluorescent counts)” value (HDAC4; HDAC4, WW01 2.5 Log nM) was 30594 Fluorescent counts and 30410 Fluorescent counts and the “HDAC Activity (Fluorescent counts)” value (HDAC4; HDAC4, WW01 3 Log nM) was 29955 Fluorescent counts and 29639 Fluorescent counts. The “HDAC Activity (Fluorescent counts)” value (HDAC4; HDAC4, WW01 3.5 Log nM) was 26541 Fluorescent counts and 27641 Fluorescent counts, the “HDAC Activity (Fluorescent counts)” value (HDAC4; HDAC4, WW01 4 Log nM) was 24902 Fluorescent counts and 23203 Fluorescent counts and the “HDAC Activity (Fluorescent counts)” value (HDAC4; HDAC4, WW01 -0.5 Log nM) was 34466 Fluorescent counts and 34397 Fluorescent counts. The IC50 (HDAC4; [4]) was > 10000 nM, the “HDAC Activity (Fluorescent counts)” value (HDAC7; HDAC7, WW01 0 Log nM) was 32252 Fluorescent counts and 31868 Fluorescent counts and the “HDAC Activity (Fluorescent counts)” value (HDAC7; HDAC7, WW01 0.5 Log nM) was 34296 Fluorescent counts and 32176 Fluorescent counts. The “HDAC Activity (Fluorescent counts)” value (HDAC7; HDAC7, WW01 1 Log nM) was 33398 Fluorescent counts and 31906 Fluorescent counts, the “HDAC Activity (Fluorescent counts)” value (HDAC7; HDAC7, WW01 1.5 Log nM) was 32702 Fluorescent counts and 31126 Fluorescent counts and the “HDAC Activity (Fluorescent counts)” value (HDAC7; HDAC7, WW01 2 Log nM) was 31277 Fluorescent counts and 30567 Fluorescent counts. The “HDAC Activity (Fluorescent counts)” value (HDAC7; HDAC7, WW01 2.5 Log nM) was 29706 Fluorescent counts and 30369 Fluorescent counts, the “HDAC Activity (Fluorescent counts)” value (HDAC7; HDAC7, WW01 3 Log nM) was 26605 Fluorescent counts and 26320 Fluorescent counts and the “HDAC Activity (Fluorescent counts)” value (HDAC7; HDAC7, WW01 3.5 Log nM) was 26104 Fluorescent counts and 24955 Fluorescent counts. The “HDAC Activity (Fluorescent counts)” value (HDAC7; HDAC7, WW01 4 Log nM) was 25321 Fluorescent counts and 25226 Fluorescent counts, the “HDAC Activity (Fluorescent counts)” value (HDAC7; HDAC7, WW01 -0.5 Log nM) was 33125 Fluorescent counts and 32259 Fluorescent counts and the IC50 (HDAC7; [4]) was > 10000 nM. For the same compound, the IC50 [3] was 140 nM, the “HDAC Activity (Fluorescent counts)” value (HDAC3/NCOR2; HDAC3/NCOR2, WW01 0 Log nM) was 24959 Fluorescent counts and 25571 Fluorescent counts and the “HDAC Activity (Fluorescent counts)” value (HDAC3/NCOR2; HDAC3/NCOR2, WW01 0.5 Log nM) was 24611 Fluorescent counts and 25823 Fluorescent counts. For the same compound, the “HDAC Activity (Fluorescent counts)” value (HDAC3/NCOR2; HDAC3/NCOR2, WW01 1 Log nM) was 23771 Fluorescent counts and 23666 Fluorescent counts, the “HDAC Activity (Fluorescent counts)” value (HDAC3/NCOR2; HDAC3/NCOR2, WW01 1.5 Log nM) was 20712 Fluorescent counts and 23164 Fluorescent counts and the “HDAC Activity (Fluorescent counts)” value (HDAC3/NCOR2; HDAC3/NCOR2, WW01 2 Log nM) was 15438 Fluorescent counts and 15968 Fluorescent counts. The “HDAC Activity (Fluorescent counts)” value (HDAC3/NCOR2; HDAC3/NCOR2, WW01 2.5 Log nM) was 10185 Fluorescent counts and 10772 Fluorescent counts, the “HDAC Activity (Fluorescent counts)” value (HDAC3/NCOR2; HDAC3/NCOR2, WW01 3 Log nM) was 6354 Fluorescent counts and 6385 Fluorescent counts and the “HDAC Activity (Fluorescent counts)” value (HDAC3/NCOR2; HDAC3/NCOR2, WW01 3.5 Log nM) was 4726 Fluorescent counts and 4835 Fluorescent counts. For the same compound, the “HDAC Activity (Fluorescent counts)” value (HDAC3/NCOR2; HDAC3/NCOR2, WW01 4 Log nM) was 3849 Fluorescent counts and 3671 Fluorescent counts, the “HDAC Activity (Fluorescent counts)” value (HDAC3/NCOR2; HDAC3/NCOR2, WW01 -0.5 Log nM) was 25301 Fluorescent counts and 26608 Fluorescent counts and the IC50 (HDAC3/NCOR2; [4]) was 188 nM.
